Experimental data reported in the supplement of paper PMC10307832.

Assays:
Experiment in all cases: relative viability (nuclei count vs DMSO), 5 days (fraction); higher = more cells survive
SK-LU-1 = tested on: SK-LU-1
Summary of the method: (§1)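 Cells from lung cancer lines were seeded into 1536-well plates and, one day later, dosed by pin tool. Treatments were either a single drug or a fixed dose of an anchor drug with five library-drug doses (not always all listed) in √10 steps. After 5 days, nuclei were stained in a one-step fixation (final 0.05% Triton X-100, 1% formaldehyde, 1 ug/ml Hoechst) and counted on 4× images, and relative viability is the treated-to-vehicle nuclei ratio, as the median of duplicate plates.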

NCI-H1734 = tested on: NCI-H1734
Summary of the method: as §1

ABC-1 = tested on: ABC-1
Summary of the method: as §1

NCI-H1651 = tested on: NCI-H1651
Summary of the method: as §1

RERF-LC-KJ = tested on: RERF-LC-KJ
Summary of the method: as §1

EMC-BAC-2 = tested on: EMC-BAC-2
Summary of the method: as §1

NCI-H1755 = tested on: NCI-H1755
Summary of the method: as §1

HCC-366 = tested on: HCC-366
Summary of the method: as §1

NCI-H727 = tested on: NCI-H727
Summary of the method: as §1

NCI-H2347 = tested on: NCI-H2347
Summary of the method: as §1

NCI-H1650 = tested on: NCI-H1650
Summary of the method: as §1

PC-3 [JPC-3] = tested on: PC-3 [JPC-3]
Summary of the method: as §1

NCI-H441 = tested on: NCI-H441
Summary of the method: as §1

NCI-H1437 = tested on: NCI-H1437
Summary of the method: as §1

CAL-12T = tested on: CAL-12T
Summary of the method: as §1

NCI-H3122 = tested on: NCI-H3122
Summary of the method: as §1

COR-L23 = tested on: COR-L23
Summary of the method: as §1

UMC-11 = tested on: UMC-11
Summary of the method: as §1

HARA = tested on: HARA
Summary of the method: as §1

NCI-H596 = tested on: NCI-H596
Summary of the method: as §1

HOP-62 = tested on: HOP-62
Summary of the method: as §1

NCI-H1563 = tested on: NCI-H1563
Summary of the method: as §1

Question: With `Cc1csc(=NC2CCCCC2)n1/N=C/c1ccc(O)c(O)c1O` [MIM1] + CC(C)C[C@H](NC(=O)[C@H](Cc1ccccc1)NC(=O)c1cnccn1)B(O)O [Bortezomib] (partner 0.002 µM) as the compound, how does the relative viability (SK-LU-1; first compound 0.2 µM) read?
Answer: 1.05

Question: What about the relative viability (SK-LU-1; first compound 0.6325 µM) of the same compound?
Answer: 1.09

Question: What about the relative viability (SK-LU-1; first compound 2 µM) of the same compound?
Answer: 1.09

Question: And the relative viability (SK-LU-1; first compound 6.325 µM)?
Answer: 0.962

Question: What about the relative viability (SK-LU-1; first compound 20 µM) of the same compound?
Answer: 0.947

Question: What about the relative viability (NCI-H1734; first compound 0.2 µM) of the same compound?
Answer: 1.12

Question: And the relative viability (NCI-H1734; first compound 0.6325 µM)?
Answer: 0.799

Question: What about the relative viability (NCI-H1734; first compound 2 µM) of the same compound?
Answer: 0.868

Question: What about the relative viability (NCI-H1734; first compound 6.325 µM) of the same compound?
Answer: 0.404

Question: And the relative viability (NCI-H1734; first compound 20 µM)?
Answer: 0.159

Question: What about the relative viability (ABC-1; first compound 0.2 µM) of the same compound?
Answer: 0.33

Question: What about the relative viability (ABC-1; first compound 0.6325 µM) of the same compound?
Answer: 0.299

Question: And the relative viability (ABC-1; first compound 2 µM)?
Answer: 0.298

Question: And the relative viability (ABC-1; first compound 6.325 µM)?
Answer: 0.309

Question: What about the relative viability (ABC-1; first compound 20 µM) of the same compound?
Answer: 0.231

Question: What about the relative viability (NCI-H1651; first compound 0.2 µM) of the same compound?
Answer: 0.92

Question: What about the relative viability (NCI-H1651; first compound 0.6325 µM) of the same compound?
Answer: 0.823

Question: And the relative viability (NCI-H1651; first compound 2 µM)?
Answer: 0.875

Question: And the relative viability (NCI-H1651; first compound 6.325 µM)?
Answer: 0.887

Question: What about the relative viability (NCI-H1651; first compound 20 µM) of the same compound?
Answer: 0.685

Question: What about the relative viability (RERF-LC-KJ; first compound 0.2 µM) of the same compound?
Answer: 1.08

Question: And the relative viability (RERF-LC-KJ; first compound 0.6325 µM)?
Answer: 1.29

Question: What about the relative viability (RERF-LC-KJ; first compound 2 µM) of the same compound?
Answer: 0.852

Question: What about the relative viability (RERF-LC-KJ; first compound 6.325 µM) of the same compound?
Answer: 0.601

Question: What about the relative viability (RERF-LC-KJ; first compound 20 µM) of the same compound?
Answer: 0.264

Question: And the relative viability (EMC-BAC-2; first compound 0.2 µM)?
Answer: 1.08

Question: And the relative viability (EMC-BAC-2; first compound 0.6325 µM)?
Answer: 0.822

Question: What about the relative viability (EMC-BAC-2; first compound 2 µM) of the same compound?
Answer: 1.08

Question: What about the relative viability (EMC-BAC-2; first compound 6.325 µM) of the same compound?
Answer: 0.996

Question: And the relative viability (EMC-BAC-2; first compound 20 µM)?
Answer: 0.259

Question: And the relative viability (NCI-H1755; first compound 0.2 µM)?
Answer: 0.954

Question: What about the relative viability (NCI-H1755; first compound 0.6325 µM) of the same compound?
Answer: 0.949

Question: And the relative viability (NCI-H1755; first compound 2 µM)?
Answer: 0.893

Question: What about the relative viability (NCI-H1755; first compound 6.325 µM) of the same compound?
Answer: 0.776

Question: What about the relative viability (NCI-H1755; first compound 20 µM) of the same compound?
Answer: 0.377

Question: And the relative viability (HCC-366; first compound 0.2 µM)?
Answer: 1.02

Question: And the relative viability (HCC-366; first compound 0.6325 µM)?
Answer: 0.994

Question: What about the relative viability (HCC-366; first compound 2 µM) of the same compound?
Answer: 0.793

Question: And the relative viability (HCC-366; first compound 6.325 µM)?
Answer: 0.998

Question: What about the relative viability (HCC-366; first compound 20 µM) of the same compound?
Answer: 0.0323

Question: And the relative viability (NCI-H727; first compound 0.2 µM)?
Answer: 0.671

Question: What about the relative viability (NCI-H727; first compound 0.6325 µM) of the same compound?
Answer: 0.785

Question: What about the relative viability (NCI-H727; first compound 2 µM) of the same compound?
Answer: 0.705

Question: And the relative viability (NCI-H727; first compound 6.325 µM)?
Answer: 0.602

Question: What about the relative viability (NCI-H727; first compound 20 µM) of the same compound?
Answer: 0.286

Question: And the relative viability (NCI-H2347; first compound 0.2 µM)?
Answer: 0.944

Question: What about the relative viability (NCI-H2347; first compound 0.6325 µM) of the same compound?
Answer: 1.03

Question: And the relative viability (NCI-H2347; first compound 2 µM)?
Answer: 0.939

Question: What about the relative viability (NCI-H2347; first compound 6.325 µM) of the same compound?
Answer: 0.798

Question: What about the relative viability (NCI-H2347; first compound 20 µM) of the same compound?
Answer: 0.578

Question: And the relative viability (NCI-H1650; first compound 0.2 µM)?
Answer: 0.263

Question: And the relative viability (NCI-H1650; first compound 0.6325 µM)?
Answer: 0.204

Question: And the relative viability (NCI-H1650; first compound 2 µM)?
Answer: 0.188

Question: And the relative viability (NCI-H1650; first compound 6.325 µM)?
Answer: 0.212

Question: And the relative viability (NCI-H1650; first compound 20 µM)?
Answer: 0.165

Question: What about the relative viability (PC-3 [JPC-3]; first compound 0.2 µM) of the same compound?
Answer: 0.862

Question: And the relative viability (PC-3 [JPC-3]; first compound 0.6325 µM)?
Answer: 0.7

Question: And the relative viability (PC-3 [JPC-3]; first compound 2 µM)?
Answer: 0.77

Question: What about the relative viability (PC-3 [JPC-3]; first compound 6.325 µM) of the same compound?
Answer: 0.703

Question: What about the relative viability (PC-3 [JPC-3]; first compound 20 µM) of the same compound?
Answer: 0.496

Question: And the relative viability (NCI-H441; first compound 0.2 µM)?
Answer: 0.593

Question: What about the relative viability (NCI-H441; first compound 0.6325 µM) of the same compound?
Answer: 0.418

Question: And the relative viability (NCI-H441; first compound 2 µM)?
Answer: 0.681

Question: And the relative viability (NCI-H441; first compound 6.325 µM)?
Answer: 0.521

Question: What about the relative viability (NCI-H441; first compound 20 µM) of the same compound?
Answer: 0.171

Question: What about the relative viability (NCI-H1437; first compound 0.2 µM) of the same compound?
Answer: 0.441

Question: What about the relative viability (NCI-H1437; first compound 0.6325 µM) of the same compound?
Answer: 0.427

Question: What about the relative viability (NCI-H1437; first compound 2 µM) of the same compound?
Answer: 0.536

Question: What about the relative viability (NCI-H1437; first compound 6.325 µM) of the same compound?
Answer: 0.221

Question: And the relative viability (NCI-H1437; first compound 20 µM)?
Answer: 0.112

Question: And the relative viability (CAL-12T; first compound 0.2 µM)?
Answer: 1.01

Question: What about the relative viability (CAL-12T; first compound 2 µM) of the same compound?
Answer: 1.04

Question: And the relative viability (CAL-12T; first compound 6.325 µM)?
Answer: 0.867

Question: What about the relative viability (CAL-12T; first compound 20 µM) of the same compound?
Answer: 0.429

Question: And the relative viability (NCI-H3122; first compound 0.2 µM)?
Answer: 1

Question: What about the relative viability (NCI-H3122; first compound 0.6325 µM) of the same compound?
Answer: 1.06

Question: And the relative viability (NCI-H3122; first compound 2 µM)?
Answer: 0.999

Question: And the relative viability (NCI-H3122; first compound 6.325 µM)?
Answer: 0.986

Question: And the relative viability (NCI-H3122; first compound 20 µM)?
Answer: 0.235

Question: What about the relative viability (COR-L23; first compound 0.2 µM) of the same compound?
Answer: 1.02

Question: What about the relative viability (COR-L23; first compound 0.6325 µM) of the same compound?
Answer: 1.04

Question: What about the relative viability (COR-L23; first compound 2 µM) of the same compound?
Answer: 0.969

Question: What about the relative viability (COR-L23; first compound 6.325 µM) of the same compound?
Answer: 0.659

Question: And the relative viability (COR-L23; first compound 20 µM)?
Answer: 0.418

Question: What about the relative viability (UMC-11; first compound 0.2 µM) of the same compound?
Answer: 0.646

Question: And the relative viability (UMC-11; first compound 0.6325 µM)?
Answer: 0.389

Question: What about the relative viability (UMC-11; first compound 2 µM) of the same compound?
Answer: 0.774

Question: And the relative viability (UMC-11; first compound 6.325 µM)?
Answer: 0.364

Question: What about the relative viability (UMC-11; first compound 20 µM) of the same compound?
Answer: 0.145

Question: And the relative viability (HARA; first compound 0.2 µM)?
Answer: 1.09

Question: What about the relative viability (HARA; first compound 0.6325 µM) of the same compound?
Answer: 1.1

Question: What about the relative viability (HARA; first compound 2 µM) of the same compound?
Answer: 1.2

Question: And the relative viability (HARA; first compound 6.325 µM)?
Answer: 1.08

Question: And the relative viability (HARA; first compound 20 µM)?
Answer: 0.127

Question: What about the relative viability (NCI-H596; first compound 0.6325 µM) of the same compound?
Answer: 1.16

Question: And the relative viability (NCI-H596; first compound 2 µM)?
Answer: 0.988

Question: And the relative viability (NCI-H596; first compound 6.325 µM)?
Answer: 0.999

Question: And the relative viability (NCI-H596; first compound 20 µM)?
Answer: 0.951

Question: And the relative viability (HOP-62; first compound 0.2 µM)?
Answer: 1.04

Question: What about the relative viability (HOP-62; first compound 0.6325 µM) of the same compound?
Answer: 0.611

Question: What about the relative viability (HOP-62; first compound 2 µM) of the same compound?
Answer: 0.746

Question: And the relative viability (HOP-62; first compound 6.325 µM)?
Answer: 0.494

Question: And the relative viability (HOP-62; first compound 20 µM)?
Answer: 0.116

Question: And the relative viability (NCI-H1563; first compound 0.2 µM)?
Answer: 0.894

Question: What about the relative viability (NCI-H1563; first compound 0.6325 µM) of the same compound?
Answer: 0.96

Question: What about the relative viability (NCI-H1563; first compound 2 µM) of the same compound?
Answer: 0.744

Question: And the relative viability (NCI-H1563; first compound 6.325 µM)?
Answer: 0.563

Question: What about the relative viability (NCI-H1563; first compound 20 µM) of the same compound?
Answer: 0.465
